Assay results reported in PMC8541911 (Molecular cell, 2021).

Columns and labels:
Format in all cases: cell-based
μ-opioid receptor (μOR) = tested on: μ-opioid receptor (μOR)
[1] = molecular target: mouse μOR receptor (Flag-μOR-2x) (Mus musculus, UniProt P42866, M72T); test: G protein activation assay; conditions: Gi1-2-3 and Goa-b activation, HEK293 cells
SNAP-μOR receptor = SNAP-μOR receptor (Homo sapiens, UniProt P35372)
[2] = molecular target: T1, human μOR receptor fused to YFP (Homo sapiens, UniProt P35372)
[3] = molecular target: T1, human μOR receptor fused to YFP; remark: listed apart in the source

T1 sequence (P35372 whole entry, the tested form may be a part): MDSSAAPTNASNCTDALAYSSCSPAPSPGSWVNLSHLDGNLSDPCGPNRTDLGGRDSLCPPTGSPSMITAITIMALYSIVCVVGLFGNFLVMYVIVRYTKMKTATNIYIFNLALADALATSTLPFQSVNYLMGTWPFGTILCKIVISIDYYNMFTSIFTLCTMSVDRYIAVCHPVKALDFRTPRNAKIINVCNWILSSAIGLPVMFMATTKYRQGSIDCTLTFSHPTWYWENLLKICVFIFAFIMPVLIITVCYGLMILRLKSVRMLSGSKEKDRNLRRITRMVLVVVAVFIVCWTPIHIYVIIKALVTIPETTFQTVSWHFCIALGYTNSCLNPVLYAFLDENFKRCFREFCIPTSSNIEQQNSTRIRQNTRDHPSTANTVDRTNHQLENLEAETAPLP
Chain of mouse μOR receptor (Flag-μOR-2x) (P42866 whole entry M72T): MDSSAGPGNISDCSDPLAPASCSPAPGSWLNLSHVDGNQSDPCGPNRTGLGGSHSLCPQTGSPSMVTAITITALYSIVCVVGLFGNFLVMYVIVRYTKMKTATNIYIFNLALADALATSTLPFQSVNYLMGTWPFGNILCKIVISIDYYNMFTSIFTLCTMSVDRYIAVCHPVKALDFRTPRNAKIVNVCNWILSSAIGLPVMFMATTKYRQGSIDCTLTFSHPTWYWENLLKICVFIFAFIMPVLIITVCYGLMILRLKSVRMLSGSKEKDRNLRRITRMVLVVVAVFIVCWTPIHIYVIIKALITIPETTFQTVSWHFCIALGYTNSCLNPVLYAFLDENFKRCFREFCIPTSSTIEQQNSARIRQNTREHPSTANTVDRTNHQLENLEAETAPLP
Chain of SNAP-μOR receptor (P35372 whole entry, the tested form may be a part): as the sequence (P35372 whole entry, the tested form may be a part) above

C[C@@H](Cc1ccsc1)NC(=O)NC[C@H](Cc1ccc(O)cc1)N(C)C [PZM21]
Classification of agonism and bias (μ-opioid receptor (μOR)): G protein-biased full agonists | Agonist behaviour in G protein assays [1]: full agonists

COc1ccsc1CNCC[C@@]1(c2ccccn2)CCOC2(CCCC2)C1 [oliceridine]
Classification of agonism and bias (μ-opioid receptor (μOR)): G protein-biased full agonists | Agonist behaviour in G protein assays [1]: full agonists | μOR internalization (response) (SNAP-μOR receptor): nearly no response | Recruitment of β-arrestin-1/2 (response) [2]: nearly no response | Recruitment of GRK2/5 (response) [3]: nearly no response

[D-Ala^2, N-Me-Phe^4, Gly^5-ol]-Enkephalin acetate salt [DAMGO]
Classification of agonism and bias (μ-opioid receptor (μOR)): unbiased full agonists
